From patent EP4763841A1, “PYRIDAZINONE COMPOUND AND USE THEREOF” (Xi'an Xintong Pharmaceutical Research Co., Ltd., priority 2023, dated 2025)
Marks after values point to notes of the source that are not given here.

Tests used:
THRα = THRα (Homo sapiens, UniProt P10827); assay: HTRF test of agonist-induced SRC3-2 coactivator peptide recruitment to THRα-LBD; type: biochemical
Protocol: 1. Experiment of binding of compounds to THRβ and THRα
Test principle: The effect of test compounds on THRβ and THRα was tested by using a method of HTRF. An MAb Anti GST-Eu cryptate antibody binds to GST-tagged THRα-LBD (or THRβ-LBD), while Streptavidin-XL665 binds to a biotin-labeled SRC3-2 coactivator peptide. […] At the same time, the resulting decrease in the distance between XL665-labeled SRC3-2 and an Eu-anti-GST antibody increases a THRFRET signal. The agonistic capacity at this target was assessed by the effect of compounds on the activity of THRα-LBD (THRβ-LBD) at different concentrations.
• (1) a 1×reaction solution was prepared. • (2) Preparation of compounds: the compound test starting concentration was 20 µM, 3-fold dilution was performed, 10 concentrations were set, and duplicate testing was set for each concentration. 100-fold dilution was performed in a 384-well Source plate to a corresponding solution with a final concentration, and then 200 nL of the solution was transferred to a 384-well reaction plate with Echo550 to be tested. 200 nL of 100% DMSO and a test article were respectively transferred to Min and Max wells. • (3) A 2×protein solution was prepared from the 1×reaction solution. • (4) A 4×SRC3-2 solution was prepared from the 1×reaction solution. • (5) A mixed solution of 4×GST-Eu cryptate and XL665 was prepared from the 1×reaction solution. • (6) 10 µl of the 2×protein solution was added to each well of the reaction plate, centrifugation was performed at 1000 rpm for 1 min, and incubation was performed at room temperature for 30 min. • (7) 5 µl of the 4×SRC3-2 solution was added to each well of the reaction plate, and centrifugation was performed at 1000 rpm for 1 min. • (8) 5 µL of the mixed solution of 4×GST-Eu cryptate and XL665 was added to each well of the reaction plate, centrifugation was performed at 1000 rpm for 1 min, and incubation was performed at 25°C. • (9) A fluorescence signal was read by using EnVision.
THRα test procedures were the same as above.

[1] = In vivo pharmacokinetic study of elimination phase half-life after single IV bolus; parameters: species or system Sprague Dawley rats; conditions: rat, blood, iv, I.V bolus, 5 mg/kg, rats, read-out: Elimination phase half-life (T1/2) (converted)
Protocol: Blood samples were collected from animals (IV group) before administration and at time points of 0.083 h, 0.25 h, 0.5 h, 1 h, 2 h, 4 h, 8 h, and 24 h after the end of administration. • Sample treatment: prior to blood collection, a centrifuge tube with 10 µl of EDTA-K2 and 1.2 mL of 50% acetonitrile-DMSO (a volume ratio of whole blood to 50% acetonitrile-DMSO is approximately 1:4) was placed in an ice box filled with crushed ice. The collected blood was added to the centrifuge tube, vortexed for at least 5 min, and then temporarily stored and transported in the ice box filled with crushed ice; and the blood was centrifuged at 12,000 g for 10 min at 4°C, wherein centrifugation was completed within 1 h after blood collection. A whole blood supernatant after centrifugation was transferred to a newly labeled tube, and transferred to -60°C or below for storage for analytical testing.

NASH model of B-DIO mice = assay: Efficacy test in NASH model of B-DIO mice (HFD + CCL4); type: in vivo; conditions: for area proportion of lipid droplets in the liver (oil red O) compared with the model group G2: Day 26, result in words (FIG. 8); for liver fibrosis (Sirius red) compared with the model group G2: Day 26, result in words (FIG. 9)
From the text: An objective of this experiment was to evaluate the pharmacodynamics of compounds of the present invention by using an NASH model of B-DIO mice.
Five C57BL/6 mice on normal diet were assigned to an experimental group G1, and 25 B-DIO mice were randomly assigned to five experimental groups according to the body weight, with 5 mice in each group.
The day of grouping was Day-1, intraperitoneal injection was started on Day 0 in the groups G2-G6 for CCL4 modeling, the concentration of a modeling agent is 0.2 µl/g, the modeling frequency was twice a week, and administration was started on Day 0.
The body weight was measured twice a week after grouping. At the end of the experiment (Day 26), the mice were fasted for 4 h, and non-anticoagulated blood of the mice in the groups G1-G6 was collected and centrifuged, and a serum was taken for blood biochemical testing. Livers in the groups G1-G6 were collected and weighed, 20 mg of the liver was weighed for determination of TC and TG, and the remaining liver was placed in formalin for fixation for pathological observation.

[2] = liver, Day 26, 0.3 mg/kg I.G. Q.D., HFD+CCL4, mean±standard error
[3] = liver, Day 26, 1 mg/kg I.G. Q.D., HFD+CCL4, mean±standard error
[4] = liver, Day 26, 2 mg/kg I.G. Q.D., HFD+CCL4, mean±standard error
[5] = serum, Day 26, 1 mg/kg I.G. Q.D., HFD+CCL4, mean±standard error

Chain of THRα (P10827 148-410 isoform P10827-2 limits assumed, other chains not shown): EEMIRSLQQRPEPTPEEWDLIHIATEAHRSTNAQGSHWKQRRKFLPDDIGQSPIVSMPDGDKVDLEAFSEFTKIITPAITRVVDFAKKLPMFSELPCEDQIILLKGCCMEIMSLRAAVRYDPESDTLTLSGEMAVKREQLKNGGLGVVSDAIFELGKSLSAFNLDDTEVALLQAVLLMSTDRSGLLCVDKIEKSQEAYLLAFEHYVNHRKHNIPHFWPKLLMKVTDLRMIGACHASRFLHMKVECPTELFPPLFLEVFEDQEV

**Q.** Which EC50 (THRα; HTRF, starting concentration 20 µM, 3-fold dilution, 10 concentrations, duplicate) does the source give for `[2H]C([2H])([2H])C(c1c(C)c(Oc2c(Cl)cc(-n3nc(CF)c(=O)[nH]c3=O)cc2Cl)n[nH]c1=O)C([2H])([2H])[2H]` [Compound 6] here?
**A.** > 5 µM

**Q.** And the “agonistic activity on THRα” value (THRα; result in words)?
**A.** weak agonistic activity on THRα

**Q.** And the half-life [1]?
**A.** 7.8 h

**Q.** And the “area proportion of lipid droplets in the liver (oil red O) compared with the model group G2” value (NASH model of B-DIO mice; G4, 0.3 mg/kg)?
**A.** decreased significantly

**Q.** And the “liver fibrosis (Sirius red) compared with the model group G2” value (NASH model of B-DIO mice; G4, 0.3 mg/kg)?
**A.** certain improvement effects on liver fibrosis

**Q.** What about the “effects of reducing liver fat accumulation and inhibiting liver fibroplasia compared with Resmetirom (G3)” value (NASH model of B-DIO mice; G4-G6 (0.3, 1, 2 mg/kg) versus Resmetirom 3 mg/kg, result in words) of the same compound?
**A.** better effects of reducing liver fat accumulation and inhibiting liver fibroplasia than Resmetirom

**Q.** And the “area proportion of lipid droplets in the liver (oil red O) compared with the model group G2” value (NASH model of B-DIO mice; G5, 1 mg/kg)?
**A.** decreased significantly

**Q.** What about the “liver fibrosis (Sirius red) compared with the model group G2” value (NASH model of B-DIO mice; G5, 1 mg/kg) of the same compound?
**A.** certain improvement effects on liver fibrosis

**Q.** And the “area proportion of lipid droplets in the liver (oil red O) compared with the model group G2” value (NASH model of B-DIO mice; G6, 2 mg/kg)?
**A.** decreased significantly

**Q.** And the “liver fibrosis (Sirius red) compared with the model group G2” value (NASH model of B-DIO mice; G6, 2 mg/kg)?
**A.** certain improvement effects on liver fibrosis

**Q.** And the “decrease of liver TC compared with the model group G2” value (NASH model of B-DIO mice; group G4, 0.3 mg/kg, Day 26)?
**A.** 24.9%

**Q.** And the “decrease of liver TG compared with the model group G2” value (NASH model of B-DIO mice; group G6, 2 mg/kg, Day 26)?
**A.** 35.9%

**Q.** And the “TC” value (NASH model of B-DIO mice; [2])?
**A.** 46.76 ± 1.53 µmol/g

**Q.** And the “TG” value (NASH model of B-DIO mice; [2])?
**A.** 59.02 ± 2.79 µmol/g

**Q.** And the “TC” value (NASH model of B-DIO mice; [3])?
**A.** 46.35 ± 1.39 µmol/g

**Q.** What about the “TG” value (NASH model of B-DIO mice; [3]) of the same compound?
**A.** 54.34 ± 2.45 µmol/g

**Q.** What about the “TC” value (NASH model of B-DIO mice; [4]) of the same compound?
**A.** 44.99 ± 1.87 µmol/g

**Q.** What about the “TG” value (NASH model of B-DIO mice; [4]) of the same compound?
**A.** 54.34 ± 3.54 µmol/g

**Q.** And the “TG” value (NASH model of B-DIO mice; serum, Day 26, 0.3 mg/kg I.G. Q.D., HFD+CCL4, mean±standard error)?
**A.** 1.03 ± 0.06 mM

**Q.** And the “ALT (U/L)” value (NASH model of B-DIO mice; [5])?
**A.** 1080.58±88.36 U/L

**Q.** What about the “AST (U/L)” value (NASH model of B-DIO mice; [5]) of the same compound?
**A.** 501.72±42.35* *** U/L

**Q.** What about the “TG” value (NASH model of B-DIO mice; [5]) of the same compound?
**A.** 1.06 ± 0.07 mM

**Q.** And the “TG” value (NASH model of B-DIO mice; serum, Day 26, 2 mg/kg I.G. Q.D., HFD+CCL4, mean±standard error)?
**A.** 1.06 ± 0.09 mM
